# Key:
# N36 [1] = molecular target: T1, N36 (Human immunodeficiency virus type 1 group M subtype B, UniProt P04578); assay: Native polyacrylamide gel electrophoresis (N-PAGE), 6-HB formation; type: binding, HIV; conditions: 40 μM, 37° C. 30 min
# T1 construct: protease-resistant N- and C-peptides from gp41
# Description: Native polyacrylamide gel electrophoresis (N-PAGE) was carried out to determine the 6-HB formation between the N- and C-peptides using the described previously (Liu, S., et al. PEPTIDES 2003, 24:1303-1313). […] The mixture was loaded onto a 10×1.0-cm precast 18% Tris-glycine gels (Invitrogen, Carlsbad, Calif.) at 25 μL/per well with an equal volume of Tris-glycine native sample buffer (Invitrogen). Gel electrophoresis was carried out with 125 V constant voltage at room temperature for 2 h. The gel was then stained with Coomassie blue and imaged with a FluorChem 8800 Imaging System (Alpha Innotech Corp., San Leandro, Calif.).
# 93BR020 (clade F, X4R5) = assay: Primary HIV-1 isolate infection of PBMC, p24 ELISA; type: cell-based; conditions: p24 production, 7 days post infection; for IC50: read-out: IC50 (Mean ± SD); for IC90: read-out: IC90 (Mean ± SD)
# Description: (§1) The inhibitory activity of FS-01 against primary HIV-1 isolates was determined as previously described in (Jiang, S., et al. ANTIMICROB. AGENTS CHEMOTHER. 2004; 48: 4349-4359. The peripheral blood mononuclear cells (PBMC) were isolated from the blood of healthy donors using a standard density gradient (Histopaque-1077, Sigma) centrifugation. The cells were plated in 75-cm plastic flasks and incubated at 37° C. for 2 h. The nonadherent cells were collected and resuspended at 5×10^5/mL in RPMI 1640 medium containing 10% FBS, 5 μg of phytohemagglutinin (PHA)/mL, and 100 U of interleukin-2/mL, followed by incubation at 37° C. for 3 days. The PHA-stimulated cells were infected with the corresponding primary HIV-1 isolates at a multiplicity of infection (MOI) of 0.01 in the absence or presence of FS-01 at graded concentrations. Culture media were changed every 3 days. The supernatants were collected 7 days post infection and tested for p24 antigen by ELISA. The percent inhibition of p24 production and IC50/IC90 values were calculated.
# 93IN101 (clade C, R5) = assay: Primary HIV-1 isolate infection of PBMC, p24 ELISA; type: cell-based; conditions: p24 production, 7 days post infection; for IC50: read-out: IC50 (Mean ± SD); for IC90: read-out: IC90 (Mean ± SD)
# Description: as §1
# 94UG103 (clade A, X4R5) = assay: Primary HIV-1 isolate infection of PBMC, p24 ELISA; type: cell-based; conditions: p24 production, 7 days post infection; for IC50: read-out: IC50 (Mean ± SD); for IC90: read-out: IC90 (Mean ± SD)
# Description: as §1
# 92UG001 (clade D, X4R5) = assay: Primary HIV-1 isolate infection of PBMC, p24 ELISA; type: cell-based; conditions: p24 production, 7 days post infection; for IC50: read-out: IC50 (Mean ± SD); for IC90: read-out: IC90 (Mean ± SD)
# Description: as §1
# 92TH009 (clade E, R5) = assay: Primary HIV-1 isolate infection of PBMC, p24 ELISA; type: cell-based; conditions: p24 production, 7 days post infection; for IC50: read-out: IC50 (Mean ± SD); for IC90: read-out: IC90 (Mean ± SD)
# Description: as §1
# 92US657 (clade B, R5) = assay: Primary HIV-1 isolate infection of PBMC, p24 ELISA; type: cell-based; conditions: p24 production, 7 days post infection; for IC50: read-out: IC50 (Mean ± SD); for IC90: read-out: IC90 (Mean ± SD)
# Description: as §1
# HIV-1IIIB = assay: HIV-1IIIB-mediated infection of MT-2 cells; type: cell-based
# Description: (§2) A dye transfer assay was used for detection of HIV-1 mediated cell-cell fusion as previously described in (Jiang, S., et al. Antimicrob.Agents Chemother. 2004; 48: 4349-4359. In brief, H9/HIV-1IIIB-infected cells were labeled with a fluorescent reagent, Calcein-AM (Molecular Probes, Inc., Eugene, OR) and then incubated with MT-2 cells (ratio =1:5) in 96-well plates at 37° C. for 2 h in the presence or absence of peptides. The fused and unfused calcein-labeled HIV-1-infected cells were counted under an inverted fluorescence microscope (Zeiss, Germany) with an eyepiece micrometer disc. The inhibition percent of cell-cell fusion and the IC50 values were calculated as described. […] The inhibitory activity of FS-01 on HIV-1-mediated infection was conducted too.
# Two T20-sensitive and five T20-resistant strains with well defined genetic mutations conferring the resistance were used in this experiment (Rimsky, L. T., et al. J.VIROL. 1998; 72: 986-993). Briefly, 1×10^4 MT-2 cells were infected with HIV-1 isolates at 100 TCID50 (50% tissue culture infective dose) in 200 μl RPMI 1640 medium containing 10% FBS in the presence or absence of FS-01 at graded concentrations overnight. Then the culture supernatants were removed and fresh media without FS-01 were added. […]
# POPC LUVs [2] = assay: Isothermal titration calorimetry (ITC), peptide-lipid binding; conditions: LUVs injected into peptide solution
# Description: (§3) So, the POPC LUV liposome system was employing to investigate the binding activity of FS-01 to lipid membranes. Large unilamellar vesicles (LUVs) of 1-palmitoyl-2-oleoyl-sn-glycero-3-phosphocholine (POPC) liposome were prepared as previously described (Liu, S., et al. J.BIOL.CHEM. 2007; 282: 9612-9620). Briefly, 20 mg of POPC stock solution was dried under a stream of nitrogen and stored in vacuum overnight to completely remove trace amounts of organic solvent. The dried lipid film was suspended by vortexing in 2 mL PBS buffer. The resultant multilamellar vesicle suspension was freeze-thawed for 5 cycles and then successively extruded through two stacked polycarbonate filters (0.1 μm) 13 times using an Avanti miniextruder.
# Solutions were degassed under vacuum prior to use. LUVs of POPC were injected into the chamber containing a peptide solution or buffer only (as a control). The heats generated in control experiments by injecting lipid vesicles into buffer without a peptide were subtracted from the heats produced in the corresponding peptide-lipid binding experiments. Data acquisition and analyses were performed using MicroCal's Origin software (Version 7.0).
# NL4-3 (V38A) = type: cell-based, HIV-1; conditions: T20-resistant (R) virus, MT-2 cells, p24, fourth day; read-out: IC50 (Mean ± SD)
# Description: (§4) Two T20-sensitive and five T20-resistant strains with well defined genetic mutations conferring the resistance were used in this experiment (Rimsky, L. T., et al. J.VIROL. 1998; 72: 986-993). Briefly, 1×10^4 MT-2 cells were infected with HIV-1 isolates at 100 TCID50 (50% tissue culture infective dose) in 200 μl RPMI 1640 medium containing 10% FBS in the presence or absence of FS-01 at graded concentrations overnight. Then the culture supernatants were removed and fresh media without FS-01 were added. On the fourth day post-infection, 100 μl of culture supernatants were collected from each well, mixed with equal volumes of 5% Triton X-100 and assayed for p24 antigen by ELISA.
# NL4-3 (V38A/N42D) = type: cell-based, HIV-1; conditions: T20-resistant (R) virus, MT-2 cells, p24, fourth day; read-out: IC50 (Mean ± SD)
# Description: as §4
# NL4-3 (V38A/N42T) = type: cell-based, HIV-1; conditions: T20-resistant (R) virus, MT-2 cells, p24, fourth day; read-out: IC50 (Mean ± SD)
# Description: as §4
# NL4-3 (N42T/N43K) = type: cell-based, HIV-1; conditions: T20-resistant (R) virus, MT-2 cells, p24, fourth day; read-out: IC50 (Mean ± SD)
# Description: as §4
# NL4-3 (N42S) = type: cell-based, HIV-1; conditions: T20-sensitive (S) virus, MT-2 cells, p24, fourth day; read-out: IC50 (Mean ± SD)
# Description: as §4
# NL4-3 (V38E/N42S) = type: cell-based, HIV-1; conditions: T20-resistant (R) virus, MT-2 cells, p24, fourth day; read-out: IC50 (Mean ± SD)
# Description: as §4
# NL4-3 (parental) = type: cell-based, HIV-1; conditions: T20-sensitive (S) virus, MT-2 cells, p24, fourth day; read-out: IC50 (Mean ± SD)
# Description: as §4
# POPC LUVs [3] = assay: Tryptophan fluorescence spectroscopy, peptide-lipid interaction; type: binding; conditions: peptide 10 μM, POPC LUVs 2 mM, excitation 295 nm
# Description: as §3
# Spectra were baseline-corrected by subtracting blank spectra of the corresponding solutions without peptide.
# [4] = molecular target: T2, 6-HB between C34-biotin and N36 (Human immunodeficiency virus type 1 group M subtype B, UniProt P04578); assay: ELISA (mAb NC-1) of inhibition of 6-helix bundle formation; type: biochemical, HIV
# T2 construct: protease-resistant N- and C-peptides from gp41
# Description: A 96-well polystyrene plate (Costar, Corning Inc., Corning, N.Y.) was coated with a 6-HB-specific monoclonal antibody NC-1 IgG (4 μg/mL in 0.1 M Tris, pH 8.8). […] The mixture was then added to the NC-1-coated plate, followed by incubation at room temperature for 30 min and washing with a washing buffer (PBS containing 0.1 % Tween 20) three times. Then streptavidin-labeled horseradish peroxidase (Invitrogen) and the substrate 3,3′,5,5′-tetramethylbenzidine (Sigma) were added sequentially. Absorbance at 450 nm (A450) was measured using an ELISA reader (Ultra 384, Tecan, Research Triangle Park, N.C.). The percent inhibition by the peptides and the IC50 values were calculated as previously described (Jiang, S. B., et al J.EXP.MED. 1991; 174: 1557-1563).
# [5] = system: HIV-1IIIB-mediated cell-cell fusion (H9/HIV-1IIIB-infected cells with MT-2 cells); assay: Dye transfer assay of HIV-1 mediated cell-cell fusion; type: cell-based; conditions: for IC50: 37° C. for 2 h, read-out: IC50, inhibition of cell-cell fusion
# Description: as §2
# N36 [6] = molecular target: T1, N36; assay: Circular dichroism (CD) spectroscopy and thermal denaturation of peptide/N36 mixtures; type: binding, HIV
# Description: Circular dichroism (CD) spectroscopy was performed following the method previously described in He, Y., et al. J.BIOL.CHEM. 2007; 282: 25631-25639. […] The final peptide concentration was 10 μM in 50 mM sodium phosphate and 150 mM NaCl, pH 7.2. The N-, C-peptides as well as FS-01 by itself was also tested. CD spectra of these individual peptides and peptide mixtures were acquired on Jasco spectropolarimeter (Model J-715, Jasco Inc., Japan) at room temperature using a 5.0-nm band with, 0.1-nm resolution, 0.1-cm path length, 4.0-s response time, and a 50-nm/min scanning speed. The spectra were corrected by subtraction of a blank corresponding to the solvent. The a-helical content was calculated from the CD signal by dividing the mean residue ellipticity at 222 nm by the value expected for 100% helix formation (−33,000 degrees cm^2 dmol^−1) according to existing literature (Shu, W., et al. BIOCHEMISTRY 2000; 39: 1634-1642; Chen, Y. H., et al. BIOCHEMISTRY 1974; 13: 3350-3359). Thermal denaturation was monitored at 222 nm by applying a thennal gradient of 2° C./min in the range of 4-98° C. To determine the reversibility, the peptide mixtures were then cooled to 4° C. and kept in the CD chamber at 4° C. for 30 min, followed by monitoring of thermal denaturation as described above. The melting curve was smoothened, and the midpoint of the thermal unfolding transition (Tm) values was calculated using Jasco software utilities.
# T1 sequence (P04578 546-581): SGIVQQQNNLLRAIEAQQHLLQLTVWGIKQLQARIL
# T2 sequence (P04578 546-581): as above
Substance,"IC50 (93BR020 (clade F, X4R5)) [µM]","IC90 (93BR020 (clade F, X4R5)) [µM]","IC50 (93IN101 (clade C, R5)) [µM]","IC90 (93IN101 (clade C, R5)) [µM]","IC50 (94UG103 (clade A, X4R5)) [µM]","IC90 (94UG103 (clade A, X4R5)) [µM]","IC50 (92UG001 (clade D, X4R5)) [µM]","IC90 (92UG001 (clade D, X4R5)) [µM]","IC50 (92TH009 (clade E, R5)) [µM]","IC90 (92TH009 (clade E, R5)) [µM]","IC50 (92US657 (clade B, R5)) [µM]","IC90 (92US657 (clade B, R5)) [µM]",binding constant to POPC LUVs (POPC LUVs [2]),IC50 (NL4-3 (V38A)) [µM],IC50 (NL4-3 (V38A/N42D)) [µM],IC50 (NL4-3 (V38A/N42T)) [µM],IC50 (NL4-3 (N42T/N43K)) [µM],IC50 (NL4-3 (N42S)) [µM],IC50 (NL4-3 (V38E/N42S)) [µM],IC50 (NL4-3 (parental)) [µM],also measured
Ac-SWETWEREIENYTRQIYRILEESQEQQDRNERDLLE-NH2 [FS-01],0.0125 ± 0.00676,0.0716 ± 0.0285,0.0343 ± 0.00321,0.0906 ± 0.0065,0.00394 ± 0.00129,0.00743 ± 0.00216,0.0119 ± 0.00301,0.0357 ± 0.00659,0.21 ± 0.00991,0.619 ± 0.039,0.0278 ± 0.00866,0.212 ± 0.084,too weak to calculate the binding constant,0.00344 ± 0.00023,0.0478 ± 0.0047,0.0304 ± 0.00436,0.0378 ± 0.0156,0.00268 ± 0.00087,0.0435 ± 0.00336,0.0126 ± 0.00118,"6-HB formation with N36 (up-shift of peptide band) (N36 [1]): able to form 6-HB with N36; inhibition of HIV-1IIIB-mediated infection of MT-2 cells, compared with T20 (HIV-1IIIB): more potent; shift of tryptophan fluorescence spectra in POPC LUVs compared to PBS (POPC LUVs [3]): did not show remarkable fluorescence spectra shift; IC50 [4]: 0.12 µM; fold more active than T20 in inhibiting membrane fusion [5]: about 6 fold; IC50 [5]: 0.0036 µM; higher melting temperature of FS-01/N36 complex compared to C34/N36 complex (N36 [6]): 10 °C; helical content in the presence of N36 (N36 [6]; CD at 222 nm, equal molar with N36, 10 μM, pH 7.2): 93%; formation of α-helical complexes with N36 (CD minimum at 208 and 222 nm) (N36 [6]; equal molar with N36, 10 μM): formation of secondary α-helical structure; melting temperature (Tm) of complex with N36 (N36 [6]; thermal denaturation monitored at 222 nm): about 72 °C"
enfuvirtide,0.0737 ± 0.00857,0.204 ± 0.028,0.0472 ± 0.00473,0.13 ± 0.0168,0.0838 ± 0.0121,0.151 ± 0.0088,0.185 ± 0.0233,0.501 ± 0.0708,0.221 ± 0.0583,0.724 ± 0.0566,0.0415 ± 0.00876,0.177 ± 0.0159,about 5×10^4 M^−1,> 2,> 2,> 2,> 2,0.0269 ± 0.013,> 2,0.022 ± 0.00119,IC50 [5]: 0.0214 µM
